Experimental data: patent US8541585B2, “N-acyl cyclic amine derivative or pharmaceutically acceptable salt thereof” (Dainippon Sumitomo Pharma Co., Ltd., priority 2010, dated 2013)

How the values were obtained:
human 5-HT6 receptor = biological target: T1, human 5-HT6 receptor (Homo sapiens, UniProt P50406); assay: Serotonin 5-HT6 receptor binding assay ([3H]-clozapine); settings: 100 nM test drug, [3H]-clozapine 2 nM, human 5-HT6 receptor-expressing CHO cell membrane; for inhibition at 0.1 µM: read-out: BINDING INHIBITION RATE (%) 5HT6 100 nM
T1 construct: expressed in transfected cells; host or cells: CHO cells (membrane preparation)
T1 sequence (P50406 whole entry): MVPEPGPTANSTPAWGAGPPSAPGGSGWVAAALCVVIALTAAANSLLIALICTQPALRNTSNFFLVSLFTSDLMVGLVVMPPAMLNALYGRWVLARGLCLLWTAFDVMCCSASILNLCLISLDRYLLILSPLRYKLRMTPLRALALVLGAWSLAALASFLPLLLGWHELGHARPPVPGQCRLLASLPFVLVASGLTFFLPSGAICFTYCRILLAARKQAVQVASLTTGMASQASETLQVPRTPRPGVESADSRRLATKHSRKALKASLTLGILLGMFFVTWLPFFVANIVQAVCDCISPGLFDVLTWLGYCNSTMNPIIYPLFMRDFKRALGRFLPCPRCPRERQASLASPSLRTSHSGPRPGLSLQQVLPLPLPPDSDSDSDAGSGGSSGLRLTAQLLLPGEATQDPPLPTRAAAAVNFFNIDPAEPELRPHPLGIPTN
Outline: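 Membranes from CHO cells expressing human 5-HT6 were incubated with [3H]-clozapine (2 nM final) for 40 min at room temperature in 50 mM Tris-HCl pH 7.6, 4 mM CaCl2, 0.5 mM EDTA. Bound radioactivity was filtered and counted. Values are % binding inhibition at 100 nM test drug, with nonspecific binding defined by 10 μM SB-258585.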

human 5-HT2A receptor = biological target: T2, human 5-HT2A receptor (Homo sapiens, UniProt P28223); assay: Serotonin 5-HT2A receptor binding assay ([3H]-ketanserin); settings: 1 nM test drug, [3H]-ketanserin 1 nM, human 5-HT2A receptor-expressing CHO cell membrane; for inhibition at 0.001 µM: read-out: BINDING INHIBITION RATE (%) 5HT2A 1 nM
T2 construct: expressed in transfected cells; host or cells: CHO cells (membrane preparation)
T2 sequence (P28223 whole entry): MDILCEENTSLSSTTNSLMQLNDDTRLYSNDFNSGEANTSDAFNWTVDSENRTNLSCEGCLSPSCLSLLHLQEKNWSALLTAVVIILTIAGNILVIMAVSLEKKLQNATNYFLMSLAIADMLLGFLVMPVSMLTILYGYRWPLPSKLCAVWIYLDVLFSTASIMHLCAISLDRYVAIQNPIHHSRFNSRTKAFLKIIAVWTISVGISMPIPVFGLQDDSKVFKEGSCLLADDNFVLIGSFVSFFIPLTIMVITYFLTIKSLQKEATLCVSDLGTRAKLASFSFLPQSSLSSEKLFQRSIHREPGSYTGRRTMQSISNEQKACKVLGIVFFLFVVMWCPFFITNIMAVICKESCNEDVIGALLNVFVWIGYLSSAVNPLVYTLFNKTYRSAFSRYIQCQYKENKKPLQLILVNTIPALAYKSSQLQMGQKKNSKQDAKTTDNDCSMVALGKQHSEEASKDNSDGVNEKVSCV
Outline: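 Membranes from CHO cells expressing human 5-HT2A incubated 15 min at 37 °C with 1 nM [3H]-ketanserin in 50 mM Tris-HCl pH 7.6, then filtered and counted by scintillation. Nonspecific binding defined with 10 μM MDL-100907; inhibition rate determined at 1 nM or 10 nM test drug.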

human α1D receptor = biological target: T3, human α1D receptor (Homo sapiens, UniProt P25100); assay: Adrenaline α1D receptor binding assay ([3H]-prazosin); settings: 100 nM test drug, [3H]-prazosin 0.6 nM, human α1D receptor-expressing CHO cell membrane; for inhibition at 0.1 µM: read-out: BINDING INHIBITION RATE (%) α1D 100 nM
T3 construct: expressed in transfected cells; host or cells: CHO cells (membrane preparation)
T3 sequence (P25100 1-572): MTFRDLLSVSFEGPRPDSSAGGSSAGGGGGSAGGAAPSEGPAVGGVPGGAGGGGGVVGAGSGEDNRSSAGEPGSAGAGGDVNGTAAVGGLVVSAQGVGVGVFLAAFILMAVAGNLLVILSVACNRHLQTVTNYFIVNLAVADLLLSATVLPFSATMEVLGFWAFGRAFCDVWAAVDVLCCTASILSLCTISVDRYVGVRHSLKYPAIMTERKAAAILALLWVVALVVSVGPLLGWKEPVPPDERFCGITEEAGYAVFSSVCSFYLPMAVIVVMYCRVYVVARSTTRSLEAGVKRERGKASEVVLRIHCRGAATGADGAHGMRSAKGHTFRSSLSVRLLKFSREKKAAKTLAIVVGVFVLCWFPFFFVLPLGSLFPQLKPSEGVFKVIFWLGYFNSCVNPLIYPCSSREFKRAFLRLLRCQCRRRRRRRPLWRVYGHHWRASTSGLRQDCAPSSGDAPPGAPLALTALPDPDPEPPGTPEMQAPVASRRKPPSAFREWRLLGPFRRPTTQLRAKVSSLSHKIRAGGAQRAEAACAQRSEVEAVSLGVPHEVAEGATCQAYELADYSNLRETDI
Outline: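 Membranes from CHO cells expressing human α1D, incubated 30 min at room temperature with 0.6 nM [3H]-prazosin in 50 mM Tris-HCl pH 7.6, filtered and counted. Nonspecific binding defined with 1 μM prazosin. Test drug at 100 nM, reported as percent inhibition of binding.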

human D2L receptor = human D2L receptor (Homo sapiens, UniProt P14416); assay: Dopamine D2L receptor binding assay ([3H]-spiperone); settings: 10 nM test drug, [3H]-spiperone 0.5 nM, human D2L receptor-expressing CHO cell membrane; for inhibition at 0.01 µM: read-out: BINDING INHIBITION RATE (%) D2L 10 nM
Sequence of human D2L receptor (P14416 whole entry): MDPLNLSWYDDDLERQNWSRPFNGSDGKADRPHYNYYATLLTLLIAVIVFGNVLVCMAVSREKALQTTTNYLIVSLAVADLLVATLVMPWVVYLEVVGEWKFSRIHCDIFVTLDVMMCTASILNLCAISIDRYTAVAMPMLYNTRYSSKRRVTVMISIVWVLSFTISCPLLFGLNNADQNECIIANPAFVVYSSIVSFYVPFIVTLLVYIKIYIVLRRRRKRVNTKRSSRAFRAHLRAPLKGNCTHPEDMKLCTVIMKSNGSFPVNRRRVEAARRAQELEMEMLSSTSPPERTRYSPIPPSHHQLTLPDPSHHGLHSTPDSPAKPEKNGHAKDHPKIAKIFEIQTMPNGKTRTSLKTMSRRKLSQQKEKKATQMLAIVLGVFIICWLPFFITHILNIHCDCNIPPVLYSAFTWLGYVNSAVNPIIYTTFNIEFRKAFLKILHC
Outline: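 CHO membranes expressing human D2L incubated 60 min at RT with 0.5 nM [³H]-spiperone in 50 mM Tris-HCl pH 7.6; filtration and scintillation counting. Nonspecific binding with 10 μM spiperone; % binding inhibition at 10 nM test drug.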

Compound	inhibition at 0.1 µM (human 5-HT6 receptor)	inhibition at 0.001 µM (human 5-HT2A receptor)	inhibition at 0.1 µM (human α1D receptor)	inhibition at 0.01 µM (human D2L receptor)	BINDING INHIBITION RATE (%) 5HT6 100 nM (human 5-HT6 receptor)	BINDING INHIBITION RATE (%) 5HT2A 1 nM (human 5-HT2A receptor)	BINDING INHIBITION RATE (%) α1D 100 nM (human α1D receptor)	BINDING INHIBITION RATE (%) D2L 10 nM (human D2L receptor)
Cc1cccc2cc(C(=O)N3CCC[C@H]3CCN3CCC(C(=O)c4ccc(F)cc4)CC3)[nH]c12 [Example 61]	82%	46%	29%	69%				
O=C(c1ccc(F)cc1)C1CCN(CC[C@@H]2CCCN2C(=O)c2cc3c(F)cccc3[nH]2)CC1 [Example 62]	87%	61%	43%	81%				
O=C(c1ccc(F)cc1)C1CCN(CC[C@@H]2CCCN2C(=O)c2cc3ccc(F)cc3[nH]2)CC1 [Example 159, (S)-(6-Fluoro-1H-indol-2-yl)(2-(2-(4-(4-fluorobenzoyl)piperidin-1-yl)ethyl)pyrrolidin-1-yl)-methanone]	96%	78%	71%	93%				
O=C(c1ccc(F)cc1)C1CCN(CC[C@@H]2CCCN2C(=O)c2cc3ccc(OC(F)(F)F)cc3[nH]2)CC1 [Example 160, (S)-(2-(2-(4-(4-Fluorobenzoyl)piperidin-1-yl)ethyl)pyrrolidin-1-yl)(6-(trifluoromethoxy)-1H-indol-2-yl)methanone]	98%	72%	53%	90%				
CC(C)c1ccc2cc(C(=O)N3CCC[C@H]3CCN3CCC(C(=O)c4ccc(F)cc4)CC3)[nH]c2c1 [Example 161, (S)-(2-(2-(4-(4-Fluorobenzoyl)piperidin-1-yl)ethyl)pyrrolidin-1-yl)(6-isopropyl-1H-indol-2-yl)methanone]	97%	69%	66%	49%				
COc1c(F)ccc2[nH]c(C(=O)N3CCC[C@H]3CCN3CCC(C(=O)c4ccc(F)cc4)CC3)cc12 [Example 162, (S)-(5-Fluoro-4-methoxy-1H-indol-2-yl)(2-(2-(4-(4-fluorobenzoyl)piperidin-1-yl)ethyl)pyrrolidin-1-yl)methanone]	93%	84%	79%	86%				
O=C(c1ccc(F)cc1)C1CCN(CC[C@@H]2CCCN2C(=O)c2[nH]c3cc(F)ccc3c2F)CC1 [Example 163, (S)-(3,6-Difluoro-1H-indol-2-yl)(2-(2-(4-(4-fluorobenzoyl)piperidin-1-yl)ethyl)pyrrolidin-1-yl)methanone]	95%	75%	48%	88%				
O=C(c1ccc(F)cc1)C1CCN(CC[C@@H]2CCCN2C(=O)c2[nH]c3cc(OC(F)(F)F)ccc3c2F)CC1 [Example 164, (S)-(3-Fluoro-6-(trifluoromethoxy)-1H-indol-2-yl)(2-(2-(4-(4-fluorobenzoyl)piperidin-1-yl)ethyl)pyrrolidin-1-yl)methanone]	99%	56%	43%	79%				
O=C(c1ccc(F)cc1)C1CCN(CC[C@@H]2CCCN2C(=O)c2[nH]c3ccccc3c2F)CC1 [Example 165, (S)-(3-Fluoro-1H-indol-2-yl)(2-(2-(4-(4-fluorobenzoyl)piperidin-1-yl)ethyl)pyrrolidin-1-yl)methanone]	90%	74%	53%	90%				
(S)-(2-(2-(4-(4-Fluorobenzoyl)piperidin-1-yl)ethyl)pyrrolidin-1-yl)(1-methyl-1H-indol-5-yl)methanone [Example 169]					73%	47%	49%	81%
